Patent publication US20180072675A1, “ANTIMICROBIAL PYRIDINOHYDRAZIDE AND HYDRAZOMETHYLPYRIDINE-BASED AGENTS” (Board of Supervisors of Louisiana State University and …, priority 2015, published 2018)
≈ marks a conversion by molar mass, not a printed value.

Assays:
[1] = tested on: Candida glabrata (ATCC Accession No. 48435); experiment: MIC80 fungal growth inhibition, C. glabrata ATCC 48435; format: cell-based; conditions: Azole-resistant, >80% growth inhibition, visual scoring; for MIC80: Nakaseomyces glabratus, ATCC48435, read-out: MIC80 C. glabrata ATCC No. 48435
Method: (§1) The antifungal activity of the pyridinohydrazide and hydrazomethylpyridine derivatives described in the s were evaluated in vitro using Candida albicans (ATCC Accession No. 10231) and Candida glabrata (ATCC Accession No. 48435). In addition, the compounds were evaluated for activity against two previously-described clinical isolates of C. albicans known to have developed azole-resistance. These isolates were obtained over a two year period from a single AIDS patient and the development of the azole-resistance mechanisms have been extensively characterized (White T C. Antimicrob. Agents Chemother. (1997) 41: 1482-1487). MIC assays were performed on the clinical isolates 1 and 17 (annotated TW1 and TW17, respectively), where isolate 1 was used as an azole-susceptible control and isolate 17 was considered azole-resistant. All assays were done in accordance with NCCLS reference documents (Clinical Laboratory and Standards Institute. Reference method for Broth Dilution Antifungal Susceptibility Testing of Yeasts: Approved Standard. M27-A3 2010; 28). The results of these screenings are summarized in Tables 1-9 (Examples 20-27) as the minimum concentrations that inhibited more than 80% of fungal growth (MIC80) as compared to positive controls containing 1% DMSO. Assays were performed in HEPES-buffered RPMI-1640 media. All MIC screens used a visual scoring method as opposed to spectroscopic analysis, due to the altered absorbance spectra of many of the compounds.

[2] = tested on: Candida albicans (ATCC Accession No. 10231); experiment: MIC80 fungal growth inhibition, C. albicans ATCC 10231; format: cell-based; conditions: Azole-susceptible, >80% growth inhibition, visual scoring; for MIC80: Candida albicans, ATCC10231, read-out: MIC80 C. albicans ATCC No. 10231
Method: as §1

[3] = tested on: C. albicans clinical isolate 1 (TW1); experiment: MIC80 fungal growth inhibition, clinical isolate TW1; format: cell-based, Candida albicans; conditions: Azole-susceptible, >80% growth inhibition, visual scoring; for MIC80: Candida albicans, read-out: MIC80 TW1
Method: as §1

[4] = tested on: Candida spp.; experiment: MIC studies, statements pooled over several isolates; format: cell-based, Candida albicans, Candida glabrata; conditions: for antifungal activity (in words): overall over the isolates tested
Method: as §1

[5] = tested on: Candida strain TW17; experiment: Time-kill assay; format: cell-based, Candida albicans; conditions: four times the MIC for TW17, 48 h
Method: FIG. 9 illustrates time-kill assays, for representative analogs that were active against the azole-resistant TW17, to determine the cidal or static nature of the analog tested. 100 μl of each sample was spread onto YM agar plates with a sterile bent spreading rod. Plates were incubated at 35° C. overnight and colonies were then counted on each plate.
One of the objectives of this study was to determine the cidal or static nature of the analogs that were active against such as TW17, the azole-resistant clinical isolate. Azoles affect Candida spp. by inhibiting ergosterol biosynthesis, and ultimately prevent their reproduction. This effect has led to the classification of azoles as fungistats. Determining the fungistatic or fungicidal nature of the synthesized compounds of the present disclosure allows a comparison to azoles, in addition to improving the understanding of how the structural motifs might lend toward an alternate mechanism of action. Therefore, time-kill assays were performed using the representative analogs that were active against the azole-resistant TW17 at concentrations at or below 8 μg/mL.
Solid drugs were dissolved in DMSO to a concentration of 10 mg/ml. This stock solution was then further diluted in water to the desired experimental concentration, determined to be four times that of the MIC for the Candida strain TW17 (as reported in the Tables).
Individual colonies of TW17 were suspended in 5 ml of sterile water and adjusted to achieve a McFarland reading between 0.08 and 0.12. The inoculum was then further diluted in sterile water at a ratio of 1:100. Three […] tissue culture tubes were prepared by combining 2.5 ml of above diluted inoculum, 21.7 ml of HEPES buffered RPMI-1640 media, and 800 μl of experimental drug dilution. A “Growth Control” tube was prepared by combining 2.5 ml of inoculum, 21.7 HEPES buffered RPMI-1640 media, and 800 μl of water-DMSO solution equal to the DMSO concentration of the experimental drug dilution. A “Sterile Control” tube was prepared by combining 24.2 ml of HEPES-buffered RPMI-1640 media and 800 μl of water-DMSO solution as in the “Growth Control”. All tubes were incubated for 48 hours at 35° C., 50 rpm. 500 μl samples were taken from the tubes at time points of predetermined intervals during this incubation.
Time points for the “Kill-Curve” and “Growth Control” tubes were taken at 0, 1, 2, 4, 6, 8, 24, and 48 h after the start of incubation. Time points for “Sterile Control” were taken at 0 and 48 hours. Each time point sample was serially diluted 1:10 in sterile 0.9% NaCl solution up to 5 times. 100 μl of each sample was spread onto YM agar plates with a sterile bent spreading rod. Plates were incubated at 35° C. overnight and colonies were then counted on each plate. Colonies on plates from diluted time points were used to estimate uncountable undiluted samples. The number of colonies in undiluted samples was estimated to be 10^n times greater than the diluted sample, where n was the number of dilutions made.

[6] = tested on: C. albicans clinical isolate 17 (TW17); experiment: MIC80 fungal growth inhibition, clinical isolate TW17; format: cell-based, Candida albicans; conditions: for MIC80: Candida albicans, read-out: MIC80 TW17; for MIC80 / MIC80 TW17: Azole-resistant, >80% growth inhibition, visual scoring
Method: as §1

[7] = tested on: Candida albicans ATCC Accession No. 10231; experiment: Checkerboard synergy assay with fluconazole; format: cell-based; conditions: for FIC Fluc: average FIC of fluconazole at varying concentrations of the test drug; for FIC Test: average FIC of the test drug at varying concentrations of fluconazole; for Activity (interaction with fluconazole): from FIC index; for FIC Index: sum of the two FICs, <1 synergistic, >=1 antagonistic
Method: Considering that two different modes of activity (cidal and static) were observed depending on the structural motifs present in our analogs, we performed a series of checkerboard assays to determine if representative active compounds were in fact acting in synergy with the azole, fluconazole. Each of these assays tested multiple concentrations of the selected analog in the presence of multiple concentrations of fluconazole. All checkerboard assays were prepared in 96-well plates. 200 μl of previously prepared drug solutions were added to each well in column 2. Using a multichannel pipette, 100 μl from each well in column 2 was serially diluted (1:2) horizontally across the plate, stopping at column 10. Contents of each well were mixed thoroughly. Column 11 was reserved for fluconazole MIC control and contained no other drug. 100 μl of media was added to each well, column 2-10. Each well was mixed thoroughly with a multichannel pipette. 100 μl was then removed and discarded from these wells. 100 μl of previously prepared fluconazole dilution was added to each well in row B. Using a multichannel pipette, 100 μl from each well was serially diluted (1:2) vertically down the plate, stopping at row F. Contents of each well were mixed thoroughly. Row G was reserved for tested drug MIC control and contained no fluconazole. Well G11 contained neither drug and served as a drug-free growth control. The final 100 μl from each well in row F was discarded.
The fungal samples were prepared from glycerol stocks of Candida albicans ATCC Accession No. 10231. The inoculum's concentration was adjusted to a McFarland standard between 0.08 and 0.12. Inoculum was then diluted at a ratio of 1:37.5 in buffered media. 100 μl of inoculum-media solution was added to each well. Following inoculation, the 96-well plates were wrapped in parafilm to prevent evaporation and incubated for overnight at 35° C. After 18 h, the wells showing growth were recorded.
Synergistic activity was determined based on the MIC read from these plates. The fractional inhibitory concentration (FIC) for a given well is the ratio of the minimum inhibitory concentration of one drug A in the presence another drug B to the minimum inhibitory concentration with only drug A. The FIC was calculated for the test drug in each of the wells along the growth/no-growth interface at varying concentrations of fluconazole, then these values were averaged to determine the average FIC for the test drug. The same process was used to calculate the average FIC for fluconazole at varying concentrations of the test drug. The sum of these two FICs gives the FIC index which can be used to determine the synergistic effect between the two drugs (Hsieh et al., Diagn. Microbiol. Infect. Dis. (1993) 16: 343-349). An FIC index value less than 1 indicated synergistic interactions between the two drugs while an FIC index value greater than or equal to 1 indicated antagonistic interactions.

| SMILES | MIC80 C. glabrata ATCC No. 48435 [1] [µg/mL] | MIC80 C. albicans ATCC No. 10231 [2] [µg/mL] | MIC80 TW1 [3] [µg/mL] | MIC80 TW17 [6] [µg/mL] | further results |
| --- | --- | --- | --- | --- | --- |
| Cc1ccc(O)c(/C=N/NC(=O)c2cccnc2)c1 [AR8] | 8 (≈ 31.3 µM) | 4 (≈ 15.7 µM) | 16 (≈ 62.7 µM) |  | activity against azole-resistant isolates (in words) ([4]; azole-resistant isolates): less active |
| O=C(N/N=C/c1cc([N+](=O)[O-])ccc1O)c1ccccn1 [AR6, (E)-N′-(2-hydroxy-5-nitrobenzylidene)picolinohydrazide] |  |  |  |  | MIC80 [1]: 8 µg/mL (≈ 27.9 µM); Cidal vs Static [5]: Static; MIC80 [2]: 4 µg/mL (≈ 14 µM); MIC80 [3]: 8 µg/mL (≈ 27.9 µM); MIC80 [6]: 8 µg/mL (≈ 27.9 µM); FIC Fluc [7]: 1.00; FIC Test [7]: 1.00; Activity (interaction with fluconazole) [7]: Antagonistic; FIC Index [7]: 2.00 |
| O=C(N/N=C/c1cc([N+](=O)[O-])ccc1O)c1ccc[n+]([O-])c1 [AR28] | 4 (≈ 13.2 µM) | 8 (≈ 26.5 µM) | 4 (≈ 13.2 µM) | 2 (≈ 6.62 µM) | Cidal vs Static [5]: Static; activity against azole-resistant TW17 [6]: 2 µM; FIC Fluc [7]: 1.00; FIC Test [7]: 1.00; Activity (interaction with fluconazole) [7]: Antagonistic; FIC Index [7]: 2.00 |
| O=C(NN=Cc1ccccn1)c1ccccn1 [AR34] | 16 (≈ 70.7 µM) | 31 (≈ 137 µM) | 16 (≈ 70.7 µM) | 16 (≈ 70.7 µM) | antifungal activity (in words) [4]: moderate activity |
| C(=NNc1ccccc1)c1ccccn1 [AR29] | 31 (≈ 157 µM) | 16 (≈ 81.1 µM) | 16 (≈ 81.1 µM) | 16 (≈ 81.1 µM) | antifungal activity (in words) [4]: moderate activity |
| O=C(NN=Cc1ccccn1)c1ccncc1 [AR36] | 125 (≈ 553 µM) | 125 (≈ 553 µM) | 62 (≈ 274 µM) | 125 (≈ 553 µM) |  |
| O=C(NN=Cc1cc(Br)ccc1O)c1ccncc1 [AR17] | 64 (≈ 200 µM) | 16 (≈ 50 µM) | 16 (≈ 50 µM) | 125 (≈ 390 µM) |  |
| COc1ccc(O)c(/C=N/NC(=O)c2ccncc2)c1 [AR15] |  |  |  |  | MIC80 [1]: 4 µg/mL (≈ 14.7 µM); MIC80 [2]: 4 µg/mL (≈ 14.7 µM); MIC80 [3]: 16 µg/mL (≈ 59 µM); MIC80 [6]: 16 µg/mL (≈ 59 µM) |
| COc1ccc(O)c(/C=N/NC(=O)c2cccnc2)c1 [AR9] | 4 (≈ 14.7 µM) | 62 (≈ 229 µM) | 16 (≈ 59 µM) | 4 (≈ 14.7 µM) |  |
| O=C(NN=Cc1cc(Br)ccc1O)c1cccnc1 [AR11] | 16 (≈ 50 µM) | 4 (≈ 12.5 µM) | 8 (≈ 25 µM) | 16 (≈ 50 µM) |  |
